The target in assay [1] is T1, mutant HIV reverse transcriptase (K103N mutation) (Human immunodeficiency virus type 1 group M subtype B, UniProt P04585, K690N).
T1 construct: mutations that occur in the reverse transcriptase segment of the pol gene; made in house
The assay can be described thus: Analogous RT inhibition assay, K103N mutant. The format is biochemical. On the procedure:
(§1) 100 μL reaction mixtures were initiated with a combination of primer-template substrate (10 nM final concentration) and dNTPs (0.6 μM dNTPs, 0.75 μM [^3H]-dGTP). The heterodimeric nucleic acid substrate was generated by annealing the DNA primer pD500 (described in Shaw-Reid et al., J. Biol. Chem., 278: 2777-2780; obtained from Integrated DNA Technologies) to t500, a 500 nucleotide RNA template created by in vitro transcription (see Shaw-Reid et al., J. Biol. Chem., 278: 2777-2780). After 1 hour incubation at 37° C., reactions were quenched by 10 μl, streptavidin scintillation proximity assay beads (10 mg/mL, from Amersham Biosciences) in 0.5 M EDTA, pH 8. Microtiter plates were incubated an additional 10 minutes at 37° C. prior to quantification via Topcount (Packard).
(§2) Analogous assays were conducted substituting mutant HIV strains to determine the […] inhibition of compounds of the present invention against mutant HIV reverse transcriptase. In one strain the reverse transcriptase has the Y181C mutation and in the other strain the reverse transcriptase has the K103N mutation. The mutations were generated with the […] site-directed mutagenesis kit (Stratagene). […] The compounds set forth in the other Examples were not tested in the Y181C assay. […] The compounds set forth in the other Examples were not tested in the K103N assay.

In assay [2] the test system is acute HIV infection of T-lymphoid cells. The assay can be described thus: Assay for inhibition of HIV replication (spread assay). The format is cell-based. The note with it: read-out: IC95, spread assay. On the procedure: An assay for the inhibition of acute HIV infection of T-lymphoid cells (alternatively referred to herein as the “spread assay”) was conducted in accordance with Vacca, J. P. et al., Proc. Natl. Acad. Sci. USA 1994, 91: 4096. […] The compounds set forth in the other Examples were not tested in the spread assay.

Assay [3] has as its target T2, mutant HIV reverse transcriptase (Y181C mutation) (Human immunodeficiency virus type 1 group M subtype B, UniProt P04585, Y768C).
T2 construct: mutations that occur in the reverse transcriptase segment of the pol gene; made in house
Kind of assay: Analogous RT inhibition assay, Y181C mutant. The format is biochemical. On the procedure: as §1, §2

Where [4] appears, read: Human immunodeficiency virus 1, inhibition of acute HIV infection of T-lymphoid cells.
Setting [5] is: reverse transcriptase with K103N mutation, tested up to 20 micromolar, read-out: IC50, K103N mutant assay.
[6] abbreviates: reverse transcriptase with Y181C mutation, tested up to 20 micromolar, read-out: IC50, Y181C mutant assay.

Molecules are shown by their SMILES. Where two headings read alike, the source gives them in different places.

Consider `O=C(Nc1ccccc1F)Nc1[nH]c2ccc(Cl)cc2c1S(=O)(=O)c1ccccc1` [Example 2, N-[5-chloro-3-(phenylsulfonyl)-1H-indol-2-yl]-N-(2-fluorophenyl)urea], for which the IC50 (usually the midpoint of a concentration-inhibition curve) in assay [1] was below 1000 nM. Besides, the IC95 (usually the concentration needed for an effect of 95%) in assay [2] (setting [4]) was below 1000 nM.

As to `O=C(CN1CCC(c2ccncc2)CC1)Nc1[nH]c2ccc(Cl)cc2c1S(=O)(=O)c1ccccc1` [Example 37, N-[5-chloro-3-(phenylsulfonyl)-1H-indol-2-yl]-2-(4-pyridin-4-ylpiperidin-1-yl)acetamide], the IC50 in assay [3] and in assay [1] was above 20000 nM throughout.

For the compound `O=C(CNCc1cscn1)Nc1[nH]c2ccc(Cl)cc2c1S(=O)(=O)c1ccccc1` [Example 38, N^1-[5-chloro-3-(phenylsulfonyl)-1H-indol-2-yl]-N^2-(1,3-thiazol-4-ylmethyl)glycinamide], the half-maximal inhibitory concentration (IC50) in assay [3] and in assay [1] was below 1000 nM in each case.

As to `O=C(NCc1cccc(F)c1)Nc1[nH]c2ccc(Br)cc2c1S(=O)(=O)N1CCCC1` [Example 70], the IC50 in assay [1] (setting [5]) is below 1000 nM.

For `O=C(Nc1ccccc1)Nc1[nH]c2ccc(Br)cc2c1S(=O)(=O)N1CCCC1` [Example 73, N-[5-bromo-3-(pyrrolidin-1-ylsulfonyl)-1H-indo1-2-yl]-N′-phenylurea], in assay [1] (setting [5]), the IC50 is below 1000 nM. For the same compound, the IC95 in assay [2] (setting [4]) is below 1000 nM.

With `CC(C)NC(=O)Nc1[nH]c2ccc(Br)cc2c1S(=O)(=O)N1CCCC1` [Example 74, N-[5-bromo-3-(pyrrolidin-1-ylsulfonyl)-1H-indol-2-yl]-N′-isopropylurea], the IC50 in assay [1] (setting [5]) is below 1000 nM.

For `O=C(Nc1[nH]c2ccc(Br)cc2c1S(=O)(=O)N1CCCC1)NC1CCCC1` [Example 78, N-[5-bromo-3-(pyrrolidin-1-ylsulfonyl)-1H-indol-2-yl]-N′-cyclopentylurea], the values for the IC50 in assay [3] and in assay [1] (setting [5]) were above 20000 nM and below 1000 nM, respectively.

As for `O=C(NCc1ccccc1O)Nc1[nH]c2ccc(Br)cc2c1S(=O)(=O)N1CCCC1` [Example 79, N-[5-bromo-3-(pyrrolidin-1-ylsulfonyl)-1H-indol-2-yl]-N′-(2-hydroxybenzyl)urea], the IC50 in assay [3] is above 20000 nM; in assay [1] (setting [5]), below 1000 nM.

Regarding `O=C(NCc1ccccn1)Nc1[nH]c2ccc(Br)cc2c1S(=O)(=O)N1CCCC1` [Example 80, N-[5-bromo-3-(pyrrolidin-1-ylsulfonyl)-1H-indol-2-yl]-N′-(pyridin-2-ylmethyl)urea], the IC50 in assay [3] was 1000 to 20000 nM; in assay [1] (setting [5]), below 1000 nM.

On to `O=C(NCc1cccnc1)Nc1[nH]c2ccc(Br)cc2c1S(=O)(=O)N1CCCC1` [Example 81, N-[5-bromo-3-(pyrrolidin-1-ylsulfonyl)-1H-indol-2-yl]-N′-(pyridin-3-ylmethyl)urea], for which the IC50 in assay [3] was 1000 to 20000 nM; in assay [1] (setting [5]), below 1000 nM.

As for `O=C(NCc1cncs1)Nc1[nH]c2ccc(Br)cc2c1S(=O)(=O)N1CCCC1` [Example 83, N-[5-bromo-3-(pyrrolidin-1-ylsulfonyl)-1H-indol-2-yl]-N′-(1,3-thiazol-5-ylmethyl)urea], the figures for the IC50 in assay [3] and in assay [1] (setting [5]) were 1000 to 20000 nM and below 1000 nM, respectively.

On to `O=C(Nc1[nH]c2ccc(Br)cc2c1S(=O)(=O)N1CCCC1)N1CCCC1` [Example 84, N-[5-bromo-3-(pyrrolidin-1-ylsulfonyl)-1H-indol-2-yl]pyrrolidine-1-carboxamide], for which the results for the IC50 in assay [3] (setting [6]) and in assay [1] (setting [5]) were above 20000 nM and below 1000 nM, respectively.

Turning to `O=C(NCCc1ccccc1)Nc1[nH]c2ccc(Br)cc2c1S(=O)(=O)N1CCCC1` [Example 85, N-[5-bromo-3-(pyrrolidin-1-ylsulfonyl)-1H-indol-2-yl]-N′-(2-phenylethyl)urea], the IC50 in assay [3] (setting [6]) is above 20000 nM; in assay [1] (setting [5]), below 1000 nM.

`O=C(Nc1[nH]c2ccc(Br)cc2c1S(=O)(=O)N1CCCC1)N1CCC1` [Example 96, N-[5-bromo-3-(pyrrolidin-1-ylsulfonyl)-1H-indol-2-yl]azetidine-1-carboxamide]: the IC95 in assay [2] (Human immunodeficiency virus 1, T-lymphoid) lay in the range of 1000 to 10000 nM.
